Assay results: patent publication US10053468B2, “Heterocyclic compound” (TAKEDA PHARMACEUTICAL COMPANY LIMITED, priority 2013, dated 2018)

Tests used:
IL-17A gene expression = experiment: Effect on IL-23-induced cytokine expression in mice; type: in vivo, Balb/c mice; conditions: Mus musculus, 30 min before and 8 hr after IL-23, versus the negative control group, read-out: Percent inhibition of IL-17A gene expression; for inhibition in vivo at 10 mg/kg: dose 10 mg/kg oral
Procedure: Effect on IL-23-induced Cytokine Expression in Mice
A mouse IL-23 solution (500 ng/10 μL, prepared by Takeda Pharmaceutical Company Limited) or PBS (10 μL, negative control group) was administered intradermally in the ear of Balb/c mice (Charles River Japan, male, 7 weeks old). Twenty-four hr after administration, the ear was resected under isoflurane anesthesia. The test compound was suspended in 0.5% methylcellulose and administered orally 30 min before and 8 hr after IL-23 administration.
RNA extraction from the ear tissue and quantitative PCR were performed as follows. Specifically, ear tissue 5 mm in diameter was punched from an area of the resected ear centering on the IL-23 injection site, and the tissue was immersed in RNAlater (QIAGEN) for at least 18 hr. The RNAlater-treated ear tissue was homogenized in 350 μL of RLT buffer (RNeasy mini kit, QIAGEN) and treated (55° C., 10 min) with Proteinase K (QIAGEN). Total RNA was then extracted according to the RNeasy mini kit protocol. The RNA thus obtained was then reverse transcribed into cDNA using the High-Capacity RNA-to-cDNA kit (Applied Biosystems), and the amount of each cytokine expressions was measured by real-time PCR (Viia7™, Applied Biosystems). The PCR buffer used was TaqMan Fast Advanced Master Mix (Applied Biosystems), and TaqMan Gene Expression Assays (Applied Biosystems) Mm00439618 ml (IL-17A) and 4352341E (β-actin) were used for cytokine gene detection. The IL-17A gene expression level was normalized to the R-actin gene expression level, and the percent inhibition of IL-17A gene expression with the test compound was then calculated.
The results obtained with the above-described method (percent inhibition of IL-17A gene expression with oral administration of the test compound) are shown in Table 5.

[1] = test system: mouse model of IL-23-induced psoriasis; experiment: Effect in a mouse model of IL-23-induced psoriasis; type: in vivo, Balb/c mice; conditions: dose 30 mg/kg oral twice daily; versus the negative control group
Procedure: Effect in a Mouse Model of IL-23-induced Psoriasis
Mouse IL-23 (500 ng/15 μL, R&D) or PBS (15 μL, negative control group) was administered intradermally in the ear of Balb/c mice (Charles River Japan, male, 7 weeks old) 5 times every other days. Seven hr after IL-23 administration at 8 days after the initial administration (final administration), the mice were anesthetized with isoflurane, and ear thickness was measured with calipers. After the ear thickness was measured, the ear was resected, tissue 8 mm in diameter was punched from an area centering on the IL-23 injection site, and the tissue was weighed. The punched ear tissue was cut in half, and one half was immersion-fixed in 10% neutral buffer formalin solution for use in histopathological evaluation. The other half was immersed in RNAlater (QIAGEN) for at least 18 hr for use in an evaluation of the IL-17A mRNA expression level. The test compound was suspended in 0.5% methylcellulose and administered orally twice daily on consecutive days from 30 min before the initial IL-23 administration to 30 min before the final IL-23 administration.
The change in ear thickness in this model was evaluated by calculating the difference in measured thickness between before IL-23 administration and 7 hr after the final IL-23 administration. In addition, the formalin-fixed tissue was embedded and sectioned, then stained with hematoxylin-eosin. The degree of acanthosis was then evaluated qualitatively by microscopy (classified with a score of 0 to 4). RNA extraction from the ear tissue and quantitative PCR were performed as follows. […] The RNA thus obtained was reverse transcribed into cDNA using the High-Capacity RNA-to-cDNA kit (Applied Biosystems), and the expression of each gene was measured by real-time PCR (Viia7™, Applied Biosystems). […] The IL-17A gene expression level was normalized to the R-actin gene expression level, and the percent inhibition of IL-17A gene expression with the test compound was then calculated. […]

[2] = test system: IL-17 production in human blood; experiment: Effect on IL-17 production in human blood; type: cell-based; conditions: 72 h, 10 μM test compound, IL-23 and Dynabeads stimulation, 3 days, read-out: Percent Inhibition at 10 μM (IL-17 production)
Procedure: Effect on IL-17 Production in Human Blood
The inhibitory effect of the test compound on IL-17 production in human blood was evaluated as follows. First, 150 μL of peripheral blood collected from healthy individuals using heparinized vacuum blood collection tubes was dispensed into each well of a 96-well plate (Corning), and 45 μL of RPMI 1640 medium (Gibco) containing 10% fetal bovine serum (FBS, Hyclone) and 30 μL of the test compound diluted with the medium was added to each well. The plate was then cultured for 30 min at 37° C. Cells were subsequently stimulated by adding 30 μL of 100 ng/mL human IL-23 (R&D) and 45 μL of Dynabeads Human (Invitrogen) to each well and culturing the plate for 3 days at 37° C. In wells without stimulation, 75 μL of RPMI 1640 medium containing 10% FBS was added instead of the IL-23 and Dynabeads solution. After culturing for 3 days, the culture supernatant was collected, and the amount of IL-17 in the supernatant was measured using an IL-17 ELISA kit (R&D).
The results of the above-described measurements (percent inhibition of IL-17 production with 10 μM of the test compound) are shown in Table 4.

RORγt [3] = molecular target: T1, RORγt (Homo sapiens, UniProt P51449); experiment: RORγt binding test using fluorescent-labeled synthetic ligand (TR-FRET); conditions: read-out: Binding inhibitory rate of fluorescent-labeled synthetic ligand to RORγt at test compound 1 μM (%)
T1 sequence (P51449 1-497 isoform P51449-2): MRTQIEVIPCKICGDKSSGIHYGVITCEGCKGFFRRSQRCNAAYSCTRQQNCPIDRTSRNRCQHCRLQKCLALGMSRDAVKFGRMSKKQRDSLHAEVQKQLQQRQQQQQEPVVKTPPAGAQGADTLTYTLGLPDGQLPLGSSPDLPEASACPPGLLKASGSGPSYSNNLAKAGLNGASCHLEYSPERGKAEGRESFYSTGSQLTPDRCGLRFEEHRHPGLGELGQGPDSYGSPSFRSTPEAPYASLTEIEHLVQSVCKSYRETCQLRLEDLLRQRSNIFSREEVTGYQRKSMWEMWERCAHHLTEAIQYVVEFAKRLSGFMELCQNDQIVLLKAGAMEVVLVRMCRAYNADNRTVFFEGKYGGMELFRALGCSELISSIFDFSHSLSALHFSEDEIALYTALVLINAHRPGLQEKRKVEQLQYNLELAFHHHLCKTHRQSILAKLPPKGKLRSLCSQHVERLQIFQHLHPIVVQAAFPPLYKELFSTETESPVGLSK
How it was run: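 His-tagged RORγt (diluted to 240 nM) with compound, then fluorescent synthetic ligand (diluted to 12 μM), 20 min at room temperature, followed by Tb anti-His antibody (diluted to 8 nM), 20 min.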

RORγt [4] = molecular target: T1, RORγt; experiment: RORγt binding test using fluorescent-labeled cholesterol (TR-FRET); conditions: read-out: Binding inhibitory rate of fluorescent-labeled cholesterol to RORγt at test compound 1 μM (%)
How it was run: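 After 20 min at room temperature with His-tagged RORγt and BODIPY-cholesterol in pH 7.5 Tris buffer (NaCl, DTT, BSA), compound wells got terbium anti-His antibody for another 20 min. Time-resolved FRET was read with excitation 320 nm, emission 520 nm and a 100 µs delay.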

RORγt [5] = molecular target: T1, RORγt; experiment: Cofactor recruitment test (Alpha Screen, biotinylated SRC-1 peptide); type: biochemical; conditions: read-out: Signal value inhibitory rate at test compound 1 μM (%)
Procedure: Cofactor Recruitment Test
Cofactor recruitment test was performed by Alpha Screen (Histidine Detection Kit, PerkinElmer) method. First, a test compound was diluted with an assay buffer (50 mM Tris-HCl (pH 7.5), 50 mM KCl, 1 mM DTT, 0.1% BSA) and added to a 384 well plate by 5 μL. […] The mixture was stood in a dark place for 1 hr, and the signal value was measured by Envision (PerkinElmer).

RORγt [6] = molecular target: T1, RORγt; experiment: Jurkat reporter test (human IL-17 ROR response element luciferase, RORγt vector); type: cell-based; conditions: Jurkat, read-out: Luminescence level inhibitory rate at test compound 3 μM (%)
How it was run: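 Luminescence (Bright-Glo, 10 min, RT) was measured after overnight compound treatment of electroporated Jurkat cells (1350 V, 10 ms interval, 3 pulses). The reaction medium was RPMI with 10% lipid-reduced FCS, 10 mM HEPES (pH 7.5) and 5 μM lovastatin.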

With COc1ccc2c(n1)CCN(C(=O)CCCC(=O)O)[C@H]2C(=O)Nc1cc(F)c2c(c1)CCC2(C)C [Example 118, 5-((5R)-5-((7-fluoro-1,1-dimethyl-2,3-dihydro-1H-inden-5-yl)carbamoyl)-2-methoxy-7,8-dihydro-1,6-naphthyridin-6(5H)-yl)-5-oxopentanoic acid] the inhibition in vivo at 10 mg/kg (IL-17A gene expression) was 87%, the “Percent Inhibition of Acanthosis Score” value [1] was 80% and the “Percent Inhibition of Ear Thickness” value [1] was 61%. The “Percent Inhibition of IL-17A Expression” value [1] was 111% and the inhibition at 10 µM [2] was 88%.
Work on COc1ccc2c(n1)CCN(C(=O)CCCC(=O)O)[C@H]2C(=O)Nc1ccc([Si](C)(C)C)c(F)c1 [Example 140, 5-((5R)-5-((3-fluoro-4-(trimethylsilyl)phenyl)carbamoyl)-2-methoxy-7,8-dihydro-1,6-naphthyridin-6(5H)-yl)-5-oxopentanoic acid] yielded an inhibition in vivo at 30 mg/kg (IL-17A gene expression; dose 30 mg/kg oral) of 90%, an inhibition at 1 µM (RORγt [3]) of 101% and an inhibition at 1 µM (RORγt [4]) of 100%. It also gave an inhibition at 1 µM (RORγt [5]) of 95%, an inhibition at 10 µM [2] of 91% and an inhibition at 3 µM (RORγt [6]) of 102%.
COc1ccc2c(c1)CCN(C(=O)N1CC(CC(=O)O)C1)[C@H]2C(=O)Nc1cc(F)c([Si](C)(C)C)c(F)c1 [Example 260, (1-(((1R)-1-((3,5-difluoro-4-(trimethylsilyl)phenyl)carbamoyl)-6-methoxy-3,4-dihydroisoquinolin-2(1H)-yl)carbonyl)azetidin-3-yl)acetic acid] gave an inhibition in vivo at 10 mg/kg (IL-17A gene expression) of 76%, an inhibition at 1 µM (RORγt [3]) of 102% and an inhibition at 1 µM (RORγt [5]) of 95%. For the same molecule, the inhibition at 10 µM [2] was 89% and the inhibition at 3 µM (RORγt [6]) was 101%.
C[Si](C)(C)c1c(F)cc(NC(=O)[C@H]2c3ccc4c(c3CCN2C(=O)N2CC(CC(=O)O)C2)OCO4)cc1F [Example 272, (1-(((6R)-6-((3,5-difluoro-4-(trimethylsilyl)phenyl)carbamoyl)-8,9-dihydro[1,3]dioxolo[4,5-f]isoquinolin-7(6H)-yl)carbonyl)azetidin-3-yl)acetic acid] gave an inhibition in vivo at 10 mg/kg (IL-17A gene expression) of 86%, an inhibition at 1 µM (RORγt [3]) of 102% and an inhibition at 1 µM (RORγt [5]) of 101%. For the same molecule, the inhibition at 10 µM [2] was 93% and the inhibition at 3 µM (RORγt [6]) was 100%.
